Experimental findings from PubChem BioAssay AID1259246 (Broad Institute, 2017) are described below.

Results filed as inconclusive are left out. The source made the active and inactive calls.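 How the source made its calls: active means valid dose-response fit whose half-maximal growth-inhibiting concentration is at or below a set limit above the top tested dose; inconclusive means flat fit with effect between 30 and 70%, or poor fit; inactive means half-maximal concentration above a set limit.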

A short description of one assay: antibacterial activity against Clostridioides difficile – 10-point retest, dose response (AID 1259246). The conditions noted are these: Clostridioides difficile clinical isolate growth, OD600, 24 h; at 60 µM (top of the series).
As to `COCC#Cc1ccc2c(c1)O[C@H](CN(C)Cc1ccc3c(c1)OCO3)[C@H](C)CN([C@@H](C)CO)S2(=O)=O`, the activity change, negative = inhibition is 6.47% (inactive).

Take `N#C[C@@H]1[C@@H](c2ccc(C#Cc3cccnc3)cc2)[C@@H](CO)N1C(=O)C1CCCCC1`: the activity change, negative = inhibition was 1.92% (inactive).

Consider `C[C@@H]1CN([C@H](C)CO)C(=O)c2cc(C#CCc3ccccc3)cnc2O[C@H]1CN(C)CC1CCCC1`, for which the activity change, negative = inhibition was 19.2% (inactive).

Consider `C[C@@H]1CN([C@@H](C)CO)S(=O)(=O)c2ccc(/C=C/c3ccccc3)cc2O[C@H]1CN(C)Cc1ccccc1`, for which the activity change, negative = inhibition is 2.6% (inactive).

In the case of `C[C@H]1CCCCO[C@H](CN(C)Cc2ccccc2)[C@@H](C)CN([C@@H](C)CO)C(=O)c2cc(NC(=O)Nc3ccc(C(F)(F)F)cc3)ccc2O1`, the activity change, negative = inhibition is 3.08% (inactive).

Regarding `C[C@H]1CN([C@@H](C)CO)C(=O)c2cccc(NC(=O)Nc3ccc(C(F)(F)F)cc3)c2O[C@H]1CN(C)S(=O)(=O)c1ccc(Cl)cc1`, the activity change, negative = inhibition is 28.2% (inactive).

Regarding `O=C(O)C[C@H]1C[C@@H]2c3cc(NC(=O)C4CCC4)ccc3O[C@@H]2[C@@H](CO)O1`, the activity change, negative = inhibition was -2.3% (inactive).

The assay is the same for the next values; noted with them: Clostridioides difficile clinical isolate growth, OD600, 24 h; at 120 µM (top of the series).
For `CC(C)CC#Cc1ccc2c(c1)O[C@@H](CN(C)Cc1ccc3c(c1)OCO3)[C@H](C)CN([C@H](C)CO)S2(=O)=O`, the activity change, negative = inhibition is 17.8% (inactive).

As for `C[C@@H]1CN([C@H](C)CO)S(=O)(=O)c2ccc(C#CC3CCCC3)cc2O[C@H]1CN(C)C`, the activity change, negative = inhibition is 4.79% (inactive).

In the case of `CNC[C@@H]1Oc2cc(-c3ccc(C)cc3)ccc2S(=O)(=O)N([C@@H](C)CO)C[C@H]1C`, the activity change, negative = inhibition is 10.7% (inactive).

Regarding `C[C@@H]1CN([C@@H](C)CO)C(=O)Cc2cc(NC(=O)C3CCCCC3)ccc2O[C@@H]1CN(C)Cc1ccc(-c2ccccc2)cc1`, the activity change, negative = inhibition is 19% (inactive).

In the case of `CO[C@H]1CN(C)C(=O)c2ccc(NC(=O)c3ccc(-c4ccccc4)cc3)cc2OC[C@H](C)NC[C@@H]1C`, the activity change, negative = inhibition is 5.28% (inactive).

With `CO[C@@H]1CN(C)C(=O)c2ccc(NC(=O)c3nc4ccccc4s3)cc2OC[C@@H](C)N(Cc2ccncc2)C[C@H]1C`, the activity change, negative = inhibition was 28.6% (inactive).

Consider `Cc1ccc(S(=O)(=O)N[C@@H]2CC[C@@H](CCNS(=O)(=O)Cc3ccccc3)O[C@@H]2CO)cc1`, for which the activity change, negative = inhibition was -1.17% (inactive).

As for `CC(C)CC#Cc1ccc2c(c1)O[C@H](CN(C)Cc1ccc3c(c1)OCO3)[C@H](C)CN([C@@H](C)CO)S2(=O)=O`, the activity change, negative = inhibition is 26.5% (inactive).

Turning to `C[C@H](CO)N1C[C@H](C)[C@@H](CN(C)C(=O)NC2CCCCC2)Oc2c(NC(=O)Nc3ccc(C(F)(F)F)cc3)cccc2C1=O`, the activity change, negative = inhibition is 28.9% (inactive).

Consider `C[C@H](CO)N1C[C@H](C)[C@@H](CN(C)Cc2cccnc2)Oc2cc(Br)ccc2S1(=O)=O`, for which the activity change, negative = inhibition is -1.18% (inactive).

Consider `C[C@@H]1CN([C@H](C)CO)S(=O)(=O)c2ccc(C3=CCCCC3)cc2O[C@H]1CN(C)Cc1cccnc1`, for which the activity change, negative = inhibition was 19% (inactive).

In the case of `C[C@@H]1CN([C@@H](C)CO)C(=O)c2ccccc2-c2ccccc2CO[C@@H]1CN(C)S(=O)(=O)c1ccc([N+](=O)[O-])cc1`, the activity change, negative = inhibition is 35.2% (inactive).

For `COc1ccc(NC(=O)Nc2cccc3c2O[C@@H](CN(C)Cc2ccc(Oc4ccccc4)cc2)[C@H](C)CN([C@@H](C)CO)C3=O)cc1`, the activity change, negative = inhibition was 18.2% (inactive).

With `C[C@H](CO)N1C[C@H](C)[C@H](CN(C)Cc2ccc(C(=O)O)cc2)Oc2cc(/C=C/c3ccccc3)ccc2S1(=O)=O`, the activity change, negative = inhibition is -7.29% (inactive).

As for `O=C(C[C@@H]1C[C@@H]2c3cc(NC(=O)Nc4ccccc4)ccc3O[C@@H]2[C@@H](CO)O1)NC1CCCC1`, the activity change, negative = inhibition is 2.79% (inactive).

For `C[C@H](CO)N1C[C@H](C)[C@@H](CN(C)C(=O)NC2CCCCC2)Oc2c(NC(=O)Nc3cccc4ccccc34)cccc2C1=O`, the activity change, negative = inhibition was 23.7% (inactive).

`CC(C)CC#Cc1ccc2c(c1)O[C@H](CN(C)Cc1ccccc1)[C@@H](C)CN([C@@H](C)CO)S2(=O)=O`: the activity change, negative = inhibition was 35.7% (inactive).

As for `N#C[C@H]1[C@H](c2ccc(C#Cc3ccccc3F)cc2)[C@@H](CO)N1C(=O)C1CCCCC1`, the activity change, negative = inhibition was 24.9% (inactive).

Consider `COc1ccc(NC(=O)N(C)C[C@H]2Oc3ccc(NC(=O)C4CC4)cc3CC(=O)N([C@H](C)CO)C[C@H]2C)cc1`, for which the activity change, negative = inhibition was -3.71% (inactive).

Turning to `C[C@@H]1CN([C@H](C)CO)C(=O)Cc2cc(NC(=O)C3CC3)ccc2O[C@H]1CN(C)Cc1ccc(Oc2ccccc2)cc1`, the activity change, negative = inhibition is 20.2% (inactive).

As for `Cc1noc(C)c1NC(=O)Nc1cccc2c1O[C@H](CN(C)Cc1ccc(Cl)c(Cl)c1)[C@H](C)CN([C@@H](C)CO)C2=O`, the activity change, negative = inhibition was 28.7% (inactive).

For `C[C@@H]1CN([C@H](C)CO)C(=O)c2cccc(NC(=O)Nc3ccc(C(F)(F)F)cc3)c2O[C@@H]1CN(C)C(=O)Nc1ccc(F)cc1`, the activity change, negative = inhibition is -4.05% (inactive).

Turning to `C[C@H](CO)N1C[C@H](C)[C@@H](CN(C)S(=O)(=O)c2ccc(F)cc2)OCCCC[C@H](C)Oc2ccc(NC(=O)Nc3cccc4ccccc34)cc2C1=O`, the activity change, negative = inhibition is 16.3% (inactive).

`C[C@H]1CN([C@@H](C)CO)C(=O)c2cccc(NC(=O)Nc3ccc(C(F)(F)F)cc3)c2O[C@H]1CN(C)S(=O)(=O)c1ccc(Cl)cc1`: the activity change, negative = inhibition was 51.5% (inactive).

As for `CC(C)CC#Cc1ccc2c(c1)O[C@H](CN(C)CC1CCOCC1)[C@H](C)CN([C@H](C)CO)S2(=O)=O`, the activity change, negative = inhibition was 14.5% (inactive).

In the case of `C[C@@H]1CN([C@H](C)CO)C(=O)Cc2cc(NC(=O)C3CC3)ccc2O[C@@H]1CN(C)Cc1ccc(Cl)c(Cl)c1`, the activity change, negative = inhibition was 27.9% (inactive).

As to `C[C@@H]1CN([C@H](C)CO)C(=O)c2cc(NC(=O)Nc3cccc4ccccc34)ccc2O[C@@H](C)CCCCO[C@@H]1CN(C)S(=O)(=O)c1ccc(F)cc1`, the activity change, negative = inhibition is 12% (inactive).

`C[C@H](CO)N1C[C@H](C)[C@@H](CN(C)C(=O)Nc2ccc(F)cc2)OCCCC[C@H](C)Oc2ccc(NC(=O)Nc3cccc4ccccc34)cc2C1=O`: the activity change, negative = inhibition is 40.4% (inactive).

On to `COc1ccc(CN(C)C[C@H]2Oc3ccc(NC(=O)C4CC4)cc3CC(=O)N([C@@H](C)CO)C[C@H]2C)cc1`, for which the activity change, negative = inhibition was -3.18% (inactive).

With `Cc1ccc(S(=O)(=O)N[C@@H]2CC[C@H](CCNS(=O)(=O)Cc3ccccc3)O[C@@H]2CO)cc1`, the activity change, negative = inhibition is -5.03% (inactive).

Turning to `CO[C@@H]1CN(C)C(=O)c2ccc(NC(=O)C3CCC3)cc2OC[C@@H](C)N(Cc2ccncc2)C[C@H]1C`, the activity change, negative = inhibition was -0.707% (inactive).

Turning to `C[C@@H]1CN([C@@H](C)CO)S(=O)(=O)c2ccc(C#CC3CCCCC3)cc2O[C@H]1CN(C)Cc1cccnc1`, the activity change, negative = inhibition is 17.6% (inactive).

Turning to `C[C@@H]1CN([C@H](C)CO)C(=O)c2cccc(NC(=O)Nc3ccc(C(F)(F)F)cc3)c2O[C@H]1CN(C)S(=O)(=O)c1ccc(Cl)cc1`, the activity change, negative = inhibition was 48.2% (inactive).

Consider `COc1ccccc1-c1ccc2c(c1)O[C@H](CN(C)Cc1ccc3c(c1)OCO3)[C@H](C)CN([C@@H](C)CO)S2(=O)=O`, for which the activity change, negative = inhibition was 31.6% (inactive).

Turning to `O=C(C[C@H]1C[C@@H]2c3cc(NC(=O)NC4CCCC4)ccc3O[C@@H]2[C@@H](CO)O1)NCc1ccc(Cl)cc1`, the activity change, negative = inhibition was 8.51% (inactive).

For the molecule `O=C(C[C@H]1C[C@H]2c3cc(NC(=O)Nc4ccc(F)cc4)ccc3O[C@H]2[C@H](CO)O1)NC1CCCCC1`, the activity change, negative = inhibition is 2.71% (inactive).

With `C[C@@H]1CN([C@H](C)CO)C(=O)Cc2cc(NC(=O)C3CC3)ccc2O[C@@H]1CN(C)Cc1ccccc1`, the activity change, negative = inhibition is -3.71% (inactive).

As for `O=C(C[C@@H]1C[C@@H]2c3cc(NC(=O)Nc4ccc(F)cc4)ccc3O[C@@H]2[C@@H](CO)O1)NC1CCCCC1`, the activity change, negative = inhibition is -8.47% (inactive).

On to `Cc1ccc(S(=O)(=O)N[C@H]2CC[C@H](CCNS(=O)(=O)Cc3ccccc3)O[C@H]2CO)cc1`, for which the activity change, negative = inhibition was -4.09% (inactive).

On to `C[C@@H]1CN([C@@H](C)CO)C(=O)c2cc(NC(=O)Nc3cccc4ccccc34)ccc2O[C@@H](C)CCCCO[C@H]1CN(C)S(=O)(=O)c1ccc(F)cc1`, for which the activity change, negative = inhibition was 34.1% (inactive).

Consider `C[C@H](CO)N1C[C@H](C)[C@@H](CN(C)C(=O)NC2CCCCC2)Oc2c(NC(=O)Nc3ccc(F)cc3)cccc2C1=O`, for which the activity change, negative = inhibition is 9.73% (inactive).

Staying with this assay, now noted: Clostridioides difficile clinical isolate growth, OD600, 24 h; at 135 µM (top of the series).
`O=C(C[C@H]1C[C@@H]2c3cc(NC(=O)Nc4ccc(F)cc4)ccc3O[C@@H]2[C@H](CO)O1)NC1CCCCC1`: the activity change, negative = inhibition is -1.13% (inactive).

Regarding `C[C@@H]1CN([C@@H](C)CO)C(=O)Cc2cc(NC(=O)CCC(F)(F)F)ccc2O[C@H]1CN(C)Cc1ccc(Oc2ccccc2)cc1`, the activity change, negative = inhibition is 8.79% (inactive).

For the molecule `COc1ccc(-c2ccc([C@H]3[C@H](C#N)N(C(=O)C4CC4)[C@H]3CO)cc2)cc1`, the activity change, negative = inhibition is -0.086% (inactive).

`C[C@@H]1CN([C@H](C)CO)C(=O)Cc2cc(NC(=O)CCC(F)(F)F)ccc2O[C@H]1CN(C)Cc1ccc(Oc2ccccc2)cc1`: the activity change, negative = inhibition was 25.5% (inactive).

`C[C@H]1CN([C@@H](C)CO)C(=O)c2cccc(NC(=O)Nc3ccc4c(c3)OCO4)c2O[C@H]1CN(C)Cc1ccc(-c2ccccc2)cc1`: the activity change, negative = inhibition was 24.8% (inactive).

Regarding `C[C@@H]1CN([C@@H](C)CO)C(=O)Cc2cc(NC(=O)CCCN(C)C)ccc2O[C@H]1CN(C)C`, the activity change, negative = inhibition was -6.21% (inactive).

For `C[C@@H]1CN([C@@H](C)CO)C(=O)Cc2cc(NC(=O)CCCN(C)C)ccc2O[C@H]1CN(C)S(C)(=O)=O`, the activity change, negative = inhibition is -4.68% (inactive).

As for `CO[C@H]1CN(C)C(=O)c2cc(NC(=O)c3ccccc3)ccc2OC[C@H](C)NC[C@H]1C`, the activity change, negative = inhibition is -3.19% (inactive).
